Test results published in PubChem BioAssay AID1963420 (Molecular Pharmacology Branch, DTP, NCI, 2024).

Tested on: 494315-158-R-J1-PDC complex spheroid growth, percent test/control
Assay: Anticancer human tumor 494315-158-R-J1-PDC patient-derived soft tissue sarcoma cell line growth inhibition [Asc]
Conditions: for IC50: curve of first compound; for viability, T/C: stronger effect = lower value; active = viability on the fitted dose curve at most 10% of control; inactive = the rest
How it was run: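 Spheroid model: tumor line + HUVEC + hMSC. Single agents and combinations; top conc. at/near clinical Cmax (10 microM if undetermined), half-log dilutions. DMSO stocks at 800-fold test concentration.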

[1] = second compound 0.1 µM, first compound 0.0316 µM
[2] = second compound 0.1 µM, first compound 0.1 µM
[3] = second compound 0.1 µM, first compound 0.316 µM
[4] = second compound 0.1 µM, first compound 1 µM
[5] = second compound 0.1 µM, first compound 3.16 µM
[6] = second compound 0.1 µM, first compound 10 µM
[7] = second compound 0.316 µM, first compound 0.0316 µM
[8] = second compound 0.316 µM, first compound 0.1 µM
[9] = second compound 0.316 µM, first compound 0.316 µM
[10] = second compound 0.316 µM, first compound 1 µM
[11] = second compound 0.316 µM, first compound 3.16 µM
[12] = second compound 0.316 µM, first compound 10 µM
[13] = second compound 1 µM, first compound 0.0316 µM
[14] = second compound 1 µM, first compound 0.1 µM
[15] = second compound 1 µM, first compound 0.316 µM
[16] = second compound 1 µM, first compound 1 µM
[17] = second compound 1 µM, first compound 3.16 µM
[18] = second compound 1 µM, first compound 10 µM
[19] = second compound 3.16 µM, first compound 0.0316 µM
[20] = second compound 3.16 µM, first compound 0.1 µM
[21] = second compound 3.16 µM, first compound 0.316 µM
[22] = second compound 3.16 µM, first compound 1 µM
[23] = second compound 3.16 µM, first compound 3.16 µM
[24] = second compound 3.16 µM, first compound 10 µM
[25] = second compound 10 µM, first compound 0.0316 µM
[26] = second compound 10 µM, first compound 0.1 µM
[27] = second compound 10 µM, first compound 0.316 µM
[28] = second compound 10 µM, first compound 1 µM
[29] = second compound 10 µM, first compound 3.16 µM
[30] = second compound 10 µM, first compound 10 µM
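Note: compound exposure lasted seven days after spheroids formed for three days.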

C#Cc1c(F)ccc2cc(O)cc(-c3ncc4c(N5CC6CCC(C5)N6)nc(OCC56CCCN5CC(F)C6)nc4c3F)c12 (stereo not given) + Cc1c(S(C)(=O)=O)c(-c2cc(F)cc(N3CCN(c4ccc(NS(=O)(=O)c5ccc(NC(CCN6CCC(C(=O)OCCCP(=O)(O)O)CC6)CSc6ccccc6)c(S(=O)(=O)C(F)(F)F)c5)cc4)CC3)c2)c(-c2ccc(Cl)cc2)n1C(C)C
inactive: viability, T/C [1] 82.8% | viability, T/C [2] 89.9% | viability, T/C [3] 77.2% | viability, T/C [4] 88.6% | viability, T/C [5] 80.4% | viability, T/C [6] 59.8% | viability, T/C [7] 84.9% | viability, T/C [8] 74.8% | viability, T/C [9] 74.8% | viability, T/C [10] 72.1% | viability, T/C [11] 71.9% | viability, T/C [12] 50.7% | viability, T/C [13] 61.6% | viability, T/C [14] 78.1% | viability, T/C [15] 72.8% | viability, T/C [16] 69.2% | viability, T/C [17] 71.1% | viability, T/C [18] 51.4% | viability, T/C [19] 51.9% | viability, T/C [20] 57.5% | viability, T/C [21] 65.7% | viability, T/C [22] 58.9% | viability, T/C [23] 51.5% | viability, T/C [24] 37.6% | viability, T/C [25] 74.8% | viability, T/C [26] 78.8% | viability, T/C [27] 88.2% | viability, T/C [28] 81.2% | viability, T/C [29] 81.3% | viability, T/C [30] 55.5%
4040 nM: IC50 (second compound 3.16 µM)
> 10000 nM: IC50 (second compound 0.1 µM) | IC50 (second compound 0.316 µM) | IC50 (second compound 1 µM) | IC50 (second compound 10 µM)

C=C(F)C(=O)N1CCN(c2nc(OCC3CCCN3C)nc3c2CCN(c2cccc4cccc(Cl)c24)C3)CC1CC#N (stereo not given) + Cc1c(S(C)(=O)=O)c(-c2cc(F)cc(N3CCN(c4ccc(NS(=O)(=O)c5ccc(NC(CCN6CCC(C(=O)OCCCP(=O)(O)O)CC6)CSc6ccccc6)c(S(=O)(=O)C(F)(F)F)c5)cc4)CC3)c2)c(-c2ccc(Cl)cc2)n1C(C)C
1340 nM: IC50 (second compound 0.316 µM)
active: viability, T/C [6] 0.16% | viability, T/C [12] 0.14% | viability, T/C [18] 0.12% | viability, T/C [24] 0.15% | viability, T/C [30] 0.24%
1470 nM: IC50 (second compound 10 µM)
inactive: viability, T/C [1] 77.7% | viability, T/C [2] 79.6% | viability, T/C [3] 71.8% | viability, T/C [4] 73.7% | viability, T/C [5] 27.8% | viability, T/C [7] 73.5% | viability, T/C [8] 72.7% | viability, T/C [9] 75.1% | viability, T/C [10] 57% | viability, T/C [11] 25.6% | viability, T/C [13] 64.3% | viability, T/C [14] 67% | viability, T/C [15] 65.5% | viability, T/C [16] 61.1% | viability, T/C [17] 20.6% | viability, T/C [19] 55.9% | viability, T/C [20] 53.4% | viability, T/C [21] 47.8% | viability, T/C [22] 41.1% | viability, T/C [23] 11.1% | viability, T/C [25] 75.8% | viability, T/C [26] 78.5% | viability, T/C [27] 73.5% | viability, T/C [28] 65.3% | viability, T/C [29] 20%
367 nM: IC50 (second compound 3.16 µM)
1370 nM: IC50 (second compound 1 µM)
1810 nM: IC50 (second compound 0.1 µM)

CCN1C(C(=O)NC23CCC(C(=O)O)(CC2)CC3)C(c2cccc(Cl)c2F)C2(C(=O)Nc3cc(Cl)ccc32)C12CCCCC2 (stereo not given) + Cc1c(S(C)(=O)=O)c(-c2cc(F)cc(N3CCN(c4ccc(NS(=O)(=O)c5ccc(NC(CCN6CCC(C(=O)OCCCP(=O)(O)O)CC6)CSc6ccccc6)c(S(=O)(=O)C(F)(F)F)c5)cc4)CC3)c2)c(-c2ccc(Cl)cc2)n1C(C)C
inactive: viability, T/C (second compound 0.1 µM, first compound 0.00949 µM) 80.3% | viability, T/C (second compound 0.1 µM, first compound 0.03 µM) 86.6% | viability, T/C (second compound 0.1 µM, first compound 0.0949 µM) 84.4% | viability, T/C (second compound 0.1 µM, first compound 0.3 µM) 77.4% | viability, T/C (second compound 0.1 µM, first compound 0.949 µM) 77.4% | viability, T/C (second compound 0.1 µM, first compound 3 µM) 67% | viability, T/C (second compound 0.316 µM, first compound 0.00949 µM) 79.1% | viability, T/C (second compound 0.316 µM, first compound 0.03 µM) 74.9% | viability, T/C (second compound 0.316 µM, first compound 0.0949 µM) 64.4% | viability, T/C (second compound 0.316 µM, first compound 0.3 µM) 60.7% | viability, T/C (second compound 0.316 µM, first compound 0.949 µM) 63.3% | viability, T/C (second compound 0.316 µM, first compound 3 µM) 54.3% | viability, T/C (second compound 1 µM, first compound 0.00949 µM) 66% | viability, T/C (second compound 1 µM, first compound 0.03 µM) 66.3% | viability, T/C (second compound 1 µM, first compound 0.0949 µM) 68.8% | viability, T/C (second compound 1 µM, first compound 0.3 µM) 62.8% | viability, T/C (second compound 1 µM, first compound 0.949 µM) 50.8% | viability, T/C (second compound 1 µM, first compound 3 µM) 39.7% | viability, T/C (second compound 3.16 µM, first compound 0.00949 µM) 53.3% | viability, T/C (second compound 3.16 µM, first compound 0.03 µM) 45.1% | viability, T/C (second compound 3.16 µM, first compound 0.0949 µM) 53.8% | viability, T/C (second compound 3.16 µM, first compound 0.3 µM) 46.5% | viability, T/C (second compound 3.16 µM, first compound 0.949 µM) 45.8% | viability, T/C (second compound 3.16 µM, first compound 3 µM) 35.6% | viability, T/C (second compound 10 µM, first compound 0.00949 µM) 83% | viability, T/C (second compound 10 µM, first compound 0.03 µM) 73.3% | viability, T/C (second compound 10 µM, first compound 0.0949 µM) 68.4% | viability, T/C (second compound 10 µM, first compound 0.3 µM) 68.5% | viability, T/C (second compound 10 µM, first compound 0.949 µM) 52.8% | viability, T/C (second compound 10 µM, first compound 3 µM) 52.8%
71.7 nM: IC50 (second compound 3.16 µM)
> 3000 nM: IC50 (second compound 0.1 µM) | IC50 (second compound 0.316 µM) | IC50 (second compound 10 µM)
1020 nM: IC50 (second compound 1 µM)

CNC(C)C(=O)NC1CN(S(=O)(=O)c2cccc(S(=O)(=O)N3CCC4CCC(C(=O)NC(c5ccccc5)c5ccccc5)N4C(=O)C(NC(=O)C(C)NC)C3)c2)CCC2CCC(C(=O)NC(c3ccccc3)c3ccccc3)N2C1=O (stereo not given) + Cc1c(S(C)(=O)=O)c(-c2cc(F)cc(N3CCN(c4ccc(NS(=O)(=O)c5ccc(NC(CCN6CCC(C(=O)OCCCP(=O)(O)O)CC6)CSc6ccccc6)c(S(=O)(=O)C(F)(F)F)c5)cc4)CC3)c2)c(-c2ccc(Cl)cc2)n1C(C)C
9.57 nM: IC50 (second compound 1 µM)
18.8 nM: IC50 (second compound 0.1 µM)
< 3.16 nM: IC50 (second compound 0.316 µM) | IC50 (second compound 3.16 µM)
inactive: viability, T/C (second compound 0.1 µM, first compound 0.00316 µM) 66.2% | viability, T/C (second compound 0.1 µM, first compound 0.01 µM) 57.6% | viability, T/C [1] 42.9% | viability, T/C [2] 36.8% | viability, T/C [3] 29.5% | viability, T/C [4] 26.9% | viability, T/C (second compound 0.316 µM, first compound 0.00316 µM) 46.4% | viability, T/C (second compound 0.316 µM, first compound 0.01 µM) 47.5% | viability, T/C [7] 39.1% | viability, T/C [8] 39.3% | viability, T/C [9] 26% | viability, T/C [10] 30% | viability, T/C (second compound 1 µM, first compound 0.00316 µM) 68.2% | viability, T/C (second compound 1 µM, first compound 0.01 µM) 43.2% | viability, T/C [13] 42.8% | viability, T/C [14] 34.7% | viability, T/C [15] 26.4% | viability, T/C [16] 23.9% | viability, T/C (second compound 3.16 µM, first compound 0.00316 µM) 49% | viability, T/C (second compound 3.16 µM, first compound 0.01 µM) 39.7% | viability, T/C [19] 32.6% | viability, T/C [20] 21.8% | viability, T/C [21] 36.7% | viability, T/C [22] 19.8% | viability, T/C (second compound 10 µM, first compound 0.00316 µM) 60.3% | viability, T/C (second compound 10 µM, first compound 0.01 µM) 60.5% | viability, T/C [25] 44.5% | viability, T/C [26] 36.4% | viability, T/C [27] 29.3% | viability, T/C [28] 29.4%
22.2 nM: IC50 (second compound 10 µM)
